Results published in patent publication US20100099561A1, “HETEROBICYCLIC ALKYLTHIO-BRIDGED ISOXAZOLINES” (E.I. DU PONT DE NEMOURS AND COMPANY, priority 2008, published 2010).

Columns and labels:
Assay type in all cases: in vivo
[1] = system: barnyardgrass (Echinochloa crus-galli); experiment: Test A preemergence, barnyardgrass; conditions: 0 to 100 scale (0 no effect, 100 complete control)
Method in brief: (§1)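 Visual injury rating, 0 = no effect to 100 = complete control, made roughly ten days after treatment by comparison with untreated controls. Preemergence: directed soil spray onto freshly planted loam/sand. Postemergence: foliar application at one- to two-leaf stage, 2–10 cm height.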

[2] = system: large crabgrass (Digitaria sanguinalis); experiment: Test A preemergence, large crabgrass; conditions: 0 to 100 scale (0 no effect, 100 complete control)
Method in brief: as §1

[3] = system: giant foxtail (Setaria faberi); experiment: Test A preemergence, giant foxtail; conditions: 0 to 100 scale (0 no effect, 100 complete control)
Method in brief: as §1

[4] = system: morningglory (Ipomoea spp.); experiment: Test A preemergence, morningglory; conditions: 0 to 100 scale (0 no effect, 100 complete control)
Method in brief: as §1

[5] = system: pigweed (Amaranthus retroflexus); experiment: Test A preemergence, pigweed; conditions: 0 to 100 scale (0 no effect, 100 complete control)
Method in brief: as §1

[6] = system: velvetleaf (Abutilon theophrasti); experiment: Test A preemergence, velvetleaf; conditions: 0 to 100 scale (0 no effect, 100 complete control)
Method in brief: as §1

[7] = system: wheat (Triticum aestivum); experiment: Test A preemergence, wheat; conditions: 0 to 100 scale (0 no effect, 100 complete control)
Method in brief: as §1

corn (Zea mays) [8] = experiment: Test A preemergence, corn; conditions: 0 to 100 scale (0 no effect, 100 complete control)
Method in brief: as §1

[9] = system: barnyardgrass (Echinochloa crus-galli); experiment: Test A postemergence, barnyardgrass; conditions: 0 to 100 scale (0 no effect, 100 complete control)
Method in brief: as §1

[10] = system: large crabgrass (Digitaria sanguinalis); experiment: Test A postemergence, large crabgrass; conditions: 0 to 100 scale (0 no effect, 100 complete control)
Method in brief: as §1

[11] = system: giant foxtail (Setaria faberi); experiment: Test A postemergence, giant foxtail; conditions: 0 to 100 scale (0 no effect, 100 complete control)
Method in brief: as §1

[12] = system: morningglory (Ipomoea spp.); experiment: Test A postemergence, morningglory; conditions: 0 to 100 scale (0 no effect, 100 complete control)
Method in brief: as §1

[13] = system: pigweed (Amaranthus retroflexus); experiment: Test A postemergence, pigweed; conditions: 0 to 100 scale (0 no effect, 100 complete control)
Method in brief: as §1

[14] = system: velvetleaf (Abutilon theophrasti); experiment: Test A postemergence, velvetleaf; conditions: 0 to 100 scale (0 no effect, 100 complete control)
Method in brief: as §1

[15] = system: wheat (Triticum aestivum); experiment: Test A postemergence, wheat; conditions: 0 to 100 scale (0 no effect, 100 complete control)
Method in brief: as §1

corn (Zea mays) [16] = experiment: Test A postemergence, corn; conditions: 0 to 100 scale (0 no effect, 100 complete control)
Method in brief: as §1

rice (Oryza sativa) = experiment: Test B flooded paddy test, rice; conditions: Flood, scale 0 to 100
Method in brief: (§2)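 Step one: raise plants to 2 leaves. Step two: flood pots 3 cm over the soil and apply compound into the water, keeping this depth. Step three: after 13–15 greenhouse days, score visually versus controls, 0–100, where 100 means complete control.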

[17] = system: umbrella sedge (Cyperus difformis); experiment: Test B flooded paddy test, umbrella sedge; conditions: Flood, scale 0 to 100
Method in brief: as §2

[18] = system: ducksalad (Heteranthera limosa); experiment: Test B flooded paddy test, ducksalad; conditions: Flood, scale 0 to 100
Method in brief: as §2

[19] = system: barnyardgrass (Echinochloa crus-galli); experiment: Test B flooded paddy test, barnyardgrass; conditions: Flood
Method in brief: as §2

[20] = 250 g ai/ha, scale 0 to 100 (0 no effect, 100 complete control)

Cc1cc2nc(C(F)(F)F)c(CS(=O)(=O)C3=NOC(C)(C)C3)c(=O)n2o1 [Compound 53]
Plant response rating, Barnyardgrass ([1]; 125 g ai/ha): 30 | Plant response rating, Barnyardgrass ([1]; 500 g ai/ha): 90 | Plant response rating, Crabgrass, Large ([2]; 125 g ai/ha): 30 | Plant response rating, Crabgrass, Large ([2]; 500 g ai/ha): 90 | Plant response rating, Foxtail, Giant ([3]; 125 g ai/ha): 30 | Plant response rating, Foxtail, Giant ([3]; 500 g ai/ha): 90 | Plant response rating, Morningglory ([4]; 125 g ai/ha): 0 | Plant response rating, Pigweed ([5]; 125 g ai/ha): 0 | Plant response rating, Pigweed ([5]; 500 g ai/ha): 0 | Plant response rating, Velvetleaf ([6]; 125 g ai/ha): 0 | Plant response rating, Velvetleaf ([6]; 500 g ai/ha): 0 | Plant response rating, Wheat ([7]; 125 g ai/ha): 0 | Plant response rating, Wheat ([7]; 500 g ai/ha): 0 | Plant response rating, Corn (corn (Zea mays) [8]; 125 g ai/ha): 0 | Plant response rating, Corn (corn (Zea mays) [8]; 500 g ai/ha): 0 | Plant response rating, Barnyardgrass ([9]; 125 g ai/ha): 50 | Plant response rating, Barnyardgrass ([9]; 500 g ai/ha): 90 | Plant response rating, Crabgrass, Large ([10]; 125 g ai/ha): 30 | Plant response rating, Crabgrass, Large ([10]; 500 g ai/ha): 80 | Plant response rating, Foxtail, Giant ([11]; 125 g ai/ha): 60 | Plant response rating, Foxtail, Giant ([11]; 500 g ai/ha): 80 | Plant response rating, Morningglory ([12]; 125 g ai/ha): 0 | Plant response rating, Morningglory ([12]; 500 g ai/ha): 10 | Plant response rating, Pigweed ([13]; 125 g ai/ha): 0 | Plant response rating, Pigweed ([13]; 500 g ai/ha): 0 | Plant response rating, Velvetleaf ([14]; 125 g ai/ha): 0 | Plant response rating, Velvetleaf ([14]; 500 g ai/ha): 0 | Plant response rating, Wheat ([15]; 125 g ai/ha): 0 | Plant response rating, Wheat ([15]; 500 g ai/ha): 20 | Plant response rating, Corn (corn (Zea mays) [16]; 125 g ai/ha): 0 | Plant response rating, Corn (corn (Zea mays) [16]; 500 g ai/ha): 0 | Plant response rating, Rice (rice (Oryza sativa); 62 g ai/ha): 0 | Plant response rating, Rice (rice (Oryza sativa); 250 g ai/ha): 0 | Plant response rating, Sedge, Umbrella ([17]; 62 g ai/ha): 0 | Plant response rating, Sedge, Umbrella ([17]; 250 g ai/ha): 0 | Plant response rating, Ducksalad ([18]; 62 g ai/ha): 0 | Plant response rating, Ducksalad ([18]; 250 g ai/ha): 0 | Plant response rating, Barnyardgrass ([19]; 62 g ai/ha, scale 0 to 100): 0 | Plant response rating, Barnyardgrass [19, 20]: 0

CC1(C)CC(S(=O)(=O)Cc2c(C(F)(F)C(F)(F)F)nc3n(c2=O)CCCO3)=NO1 [Compound 55]
Plant response rating, Barnyardgrass ([1]; 125 g ai/ha): 50 | Plant response rating, Barnyardgrass ([1]; 500 g ai/ha): 80 | Plant response rating, Crabgrass, Large ([2]; 125 g ai/ha): 0 | Plant response rating, Crabgrass, Large ([2]; 500 g ai/ha): 90 | Plant response rating, Foxtail, Giant ([3]; 125 g ai/ha): 80 | Plant response rating, Foxtail, Giant ([3]; 500 g ai/ha): 90 | Plant response rating, Morningglory ([4]; 125 g ai/ha): 0 | Plant response rating, Morningglory ([4]; 500 g ai/ha): 50 | Plant response rating, Pigweed ([5]; 125 g ai/ha): 0 | Plant response rating, Pigweed ([5]; 500 g ai/ha): 40 | Plant response rating, Velvetleaf ([6]; 125 g ai/ha): 0 | Plant response rating, Velvetleaf ([6]; 500 g ai/ha): 30 | Plant response rating, Wheat ([7]; 125 g ai/ha): 0 | Plant response rating, Wheat ([7]; 500 g ai/ha): 20 | Plant response rating, Corn (corn (Zea mays) [8]; 125 g ai/ha): 0 | Plant response rating, Corn (corn (Zea mays) [8]; 500 g ai/ha): 0 | Plant response rating, Barnyardgrass ([9]; 125 g ai/ha): 70 | Plant response rating, Barnyardgrass ([9]; 500 g ai/ha): 90 | Plant response rating, Crabgrass, Large ([10]; 125 g ai/ha): 30 | Plant response rating, Crabgrass, Large ([10]; 500 g ai/ha): 70 | Plant response rating, Foxtail, Giant ([11]; 125 g ai/ha): 70 | Plant response rating, Foxtail, Giant ([11]; 500 g ai/ha): 80 | Plant response rating, Morningglory ([12]; 125 g ai/ha): 10 | Plant response rating, Morningglory ([12]; 500 g ai/ha): 20 | Plant response rating, Pigweed ([13]; 125 g ai/ha): 0 | Plant response rating, Pigweed ([13]; 500 g ai/ha): 10 | Plant response rating, Velvetleaf ([14]; 125 g ai/ha): 0 | Plant response rating, Velvetleaf ([14]; 500 g ai/ha): 30 | Plant response rating, Wheat ([15]; 125 g ai/ha): 0 | Plant response rating, Wheat ([15]; 500 g ai/ha): 30 | Plant response rating, Corn (corn (Zea mays) [16]; 125 g ai/ha): 0 | Plant response rating, Corn (corn (Zea mays) [16]; 500 g ai/ha): 0 | Plant response rating, Rice (rice (Oryza sativa); 31 g ai/ha): 0 | Plant response rating, Rice (rice (Oryza sativa); 62 g ai/ha): 0 | Plant response rating, Rice (rice (Oryza sativa); 125 g ai/ha): 0 | Plant response rating, Rice (rice (Oryza sativa); 250 g ai/ha): 0 | Plant response rating, Sedge, Umbrella ([17]; 31 g ai/ha): 0 | Plant response rating, Sedge, Umbrella ([17]; 62 g ai/ha): 0 | Plant response rating, Sedge, Umbrella ([17]; 125 g ai/ha): 0 | Plant response rating, Sedge, Umbrella ([17]; 250 g ai/ha): 0 | Plant response rating, Ducksalad ([18]; 31 g ai/ha): 0 | Plant response rating, Ducksalad ([18]; 62 g ai/ha): 0 | Plant response rating, Ducksalad ([18]; 125 g ai/ha): 0 | Plant response rating, Ducksalad ([18]; 250 g ai/ha): 0 | Plant response rating, Barnyardgrass ([19]; 31 g ai/ha, scale 0 to 100): 0 | Plant response rating, Barnyardgrass ([19]; 62 g ai/ha, scale 0 to 100): 0 | Plant response rating, Barnyardgrass ([19]; 125 g ai/ha, scale 0 to 100): 0 | Plant response rating, Barnyardgrass [19, 20]: 0
